Experimental data: patent US10441597B2, “Ciclesonide for the treatment of airway disease in horses” (Boehringer Ingelheim Vetmedica GmbH, priority 2012, dated 2019)
Where two headings read alike, the source gives them in different places.

Legend:
cortisol levels [1] = settings: horses; after aerosol administration; cited from earlier work
cortisol levels [2] = settings: humans; after aerosol administration/inhalation; cited from earlier work
RAO horses [3] = assay: Moldy hay challenge study in RAO horses: lung function variables (transpulmonary pressure, lung resistance, lung elastance); format: in vivo, horse; settings: dexamethasone 0.066 mg/kg per os once daily, after 14 days
Description: (§1) The commercially available […]® is used in the study.

[4] = test system: segmented neutrophils and lymphocytes; assay: Moldy hay challenge study in RAO horses: segmented neutrophil and lymphocyte counts; format: in vivo, horse; settings: for Lymphocytes count after administration / Segmented neutrophil count after administration: dexamethasone 0.066 mg/kg per os once daily
Procedure: as §1
The segmented neutrophil counts and the lymphocyte counts are determined in the studies above: ciclesonide treatment versus dexamethasone treatment.

RAO horses [5] = assay: Moldy hay challenge study in RAO horses: clinical score (breathing effort score, weighted clinical score); format: in vivo, horse; settings: dexamethasone 0.066 mg/kg per os once daily
Description: as §1

[6] = when taken orally; cited from earlier work

Compound | Measured cortisol levels (cortisol levels [1]) | Measured cortisol levels (cortisol levels [2]) | All lung function variables compared to pretreatment values (RAO horses [3]; 1st ciclesonide study, p<0.0001) | All lung function variables compared to pretreatment values (RAO horses [3]; 2nd ciclesonide study, p=0.0009 to p<0.0001) | All lung function variables compared to pretreatment values (RAO horses [3]; Budesonide study, p≤0.0001) | Lymphocytes count after administration ([4]; 1st ciclesonide study) | Segmented neutrophil count after administration ([4]; 1st ciclesonide study) | Lymphocytes count after administration ([4]; 2nd ciclesonide study) | Segmented neutrophil count after administration ([4]; 2nd ciclesonide study) | Neutrophilia and lymphopenia ([4]; after treatment with dexamethasone, 1st and 2nd ciclesonide studies (Table 2)) | Breathing effort score (RAO horses [5]; 1st ciclesonide study, any measured time point) | Weighted clinical score compared to pretreatment values (RAO horses [5]; 2nd ciclesonide study, after 14 days, p=0.0001 to p<0.0001) | Clinical score compared to pretreatment values (RAO horses [5]; Budesonide study, after 7 and 14 days, p=0.002 to p<0.0001) | Potency relative to prednisone [6] [times] | Potency relative to the naturally occurring hormone cortisol [6] [times]
C[C@@H]1C[C@H]2[C@@H]3C[C@H](F)C4=CC(=O)C=C[C@]4(C)[C@@]3(F)[C@@H](O)C[C@]2(C)[C@@]1(O)C(=O)SCF [fluticasone] | significant suppression | significant suppression |  |  |  |  |  |  |  |  |  |  |  |  | 
C[C@@H]1C[C@H]2[C@@H]3CCC4=CC(=O)C=C[C@]4(C)[C@@]3(F)[C@@H](O)C[C@]2(C)[C@@]1(O)C(=O)CO [dexamethasone] |  |  | significantly reduced | significantly reduced | significantly reduced | decreased | increased | decreased | increased | commonly observed | no significant changes | significantly reduced | significantly reduced | 7 | 27
